pIC50: −log10 of the molar value.
Columns and labels:
[1] = target: HPK1 kinase (aal-346. Life Technologies) (Homo sapiens (Human), UniProt Q92918); experiment: HPK Kinase Activity Assay at 1 mM ATP (TR-FRET); type: biochemical; conditions: HPK1 kinase 40 nM, 0.5 μM STK1 substrate, read-out: Enzymatic activity IC50
[2] = test system: pSLP76(S376) level in Jurkat cell line; experiment: Cellular pSLP76(S376) HTRF Assay; type: cell-based; conditions: Homo sapiens, Jurkat, Jurkat cells, 2 h compound treatment, stimulated with 0.05 μg/mL anti-human CD3 (OKT3) for 30 min

Sequence of HPK1 kinase (aal-346. Life Technologies) (Q92918 1-346): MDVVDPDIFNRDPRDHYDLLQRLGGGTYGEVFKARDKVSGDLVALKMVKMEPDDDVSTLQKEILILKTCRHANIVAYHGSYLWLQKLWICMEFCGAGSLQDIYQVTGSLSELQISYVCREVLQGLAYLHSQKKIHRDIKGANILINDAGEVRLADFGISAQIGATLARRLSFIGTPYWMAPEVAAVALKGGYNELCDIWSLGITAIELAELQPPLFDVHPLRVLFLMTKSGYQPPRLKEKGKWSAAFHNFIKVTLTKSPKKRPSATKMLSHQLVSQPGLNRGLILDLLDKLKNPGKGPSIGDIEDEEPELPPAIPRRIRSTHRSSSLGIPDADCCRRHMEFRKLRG

Structure (SMILES)	pIC50 [1]	pIC50 [2]
CCNC(=O)NCc1c(C)cc(-c2cnc(N)c(Oc3cnn(C4CCN(C)CC4)c3)n2)cc1C [Example A36, 1-(4-(5-amino-6-((1-(1-methylpiperidin-4-yl)-1H-pyrazol-4-yl)oxy)pyrazin-2-yl)-2,6-dimethylbenzyl)-3-ethylurea]	7.66	7.27
CNS(=O)(=O)c1cc(-c2cnc(N)c(Oc3cnn(C4CCN(C)CC4)c3)n2)cc(C)c1C [Example A8, 5-(5-amino-6-((1-(1-methylpiperidin-4-yl)-1H-pyrazol-4-yl)oxy)pyrazin-2-yl)-N,2,3-trimethylbenzemesulfonamide]	8.10	7.52
CNS(=O)(=O)c1cc(-c2cnc(N)c(Oc3cnn(C4CCN(C)CC4)c3)n2)cc(N2CCCCC2)c1 [Example A41, 3-(5-amino-6-((1-(1-methylpiperidin-4-yl)-1H-pyrazol-4-yl)oxy)pyrazin-2-yl)-N-methyl-5-(piperidin-1-yl)benzenesulfonamide]	7.96	7.00
Cc1cc(-c2cnc(N)c(Oc3cnn(C4CCN(C)CC4)c3)n2)cc(C(F)F)c1C(=O)NCCN(C)C [Example A33, 4-(5-amino-6-((1-(1-methylpiperidin-4-yl)-1H-pyrazol-4-yl)oxy)pyrazin-2-yl)-2-(difluoromethyl)-N-(2-(dimethylamino)ethyl)-6-methylbenzamide]	7.17	6.99
Cc1cc(-c2cnc(N)c(Oc3cnn(C4CCN(C)CC4)c3)n2)cc(C)c1CNC(=O)NC1CCCC1 [Example A37, 1-(4-(5-amino-6-((1-(1-methylpiperidin-4-yl)-1H-pyrazol-4-yl)oxy)pyrazin-2-yl)-2,6-dimethylbenzyl)-3-cyclopentylurea]	7.77	7.01
Cc1cc(-c2cnc(N)c(Oc3cnn(C4CCN(C)CC4)c3)n2)cc(C)c1CNS(=O)(=O)c1ccccc1 [Example A38, N-(4-(5-amino-6-((1-(1-methylpiperidin-4-yl)-1H-pyrazol-4-yl)oxy)pyrazin-2-yl)-2,6-dimethylbenzyl)benzenesulfonamide]	7.43	6.90
Cc1cc(-c2cnc(N)c(Oc3cnn(C4CCN(C)CC4)c3)n2)cc(C(=O)NCCN(C)C)c1C [Example A17, 5-(5-amino-6-((1-(1-methylpiperidin-4-yl)-1H-pyrazol-4-yl)oxy)pyrazin-2-yl)-N-(2-(dimethylamino)ethyl)-2,3-dimethylbenzamide]	7.23	6.71
Cc1cc(-c2cnc(N)c(Oc3cnn(C4CCN(C)CC4)c3)n2)cc(C)c1CNS(=O)(=O)C1CCOCC1 [Example A31, N-(4-(5-amino-6-((1-(1-methylpiperidin-4-yl)-1H-pyrazol-4-yl)oxy)pyrazin-2-yl)-2,6-dimethylbenzyl)tetrahydro-2H-pyran-4-sulfonamide]	7.47	7.11
CNS(=O)(=O)c1cc(C)cc(-c2cnc(N)c(Oc3cnn(C4CCN(C5CC5)CC4)c3)n2)c1 [Example A24, 3-(5-amino-6-((1-(1-cyclopropylpiperidin-4-yl)-1H-pyrazol-4-yl)oxy)pyrazin-2-yl)-N,5-dimethylbenzenesulfonamide]	6.98	6.76
Cc1cc(CCNS(C)(=O)=O)cc(-c2cnc(N)c(Oc3cnn(C4CCN(C)CC4)c3)n2)c1 [Example A12, N-(3-(5-amino-6-((1-(1-methylpiperidin-4-yl)-1H-pyrazol-4-yl)oxy)pyrazin-2-yl)-5-methylphenethyl)methanesulfonamide]	6.90	6.92
CNS(=O)(=O)c1cc(-c2cnc(N)c(Oc3cnn(C4CCN(C)CC4)c3)n2)cc(C(C)(C)C)c1 [Example A30, 3-(5-amino-6-((1-(1-methylpiperidin-4-yl)-1H-pyrazol-4-yl)oxy)pyrazin-2-yl)-5-(tert-butyl)-N-methylbenzenesulfonamide]	6.95	6.48
CC(=O)NCc1c(C)cc(-c2cnc(N)c(Oc3cnn(C4CCN(C)CC4)c3)n2)cc1C [Example A45, N-(4-(5-amino-6-((1-(1-methylpiperidin-4-yl)-1H-pyrazol-4-yl)oxy)pyrazin-2-yl)-2,6-dimethylbenzyl)acetamide]	7.29	6.92
Cc1cc(-c2cnc(N)c(Oc3cnn(C4CCN(C)CC4)c3)n2)cc(C)c1CNS(C)(=O)=O [Example A19, N-(4-(5-amino-6-((1-(1-methylpiperidin-4-yl)-1H-pyrazol-4-yl)oxy)pyrazin-2-yl)-2,6-dimethylbenzyl)methanesulfonamide]	7.36	7.34
Cc1cc(-c2cnc(N)c(Oc3cnn(C4CCN(C)CC4)c3)n2)cc(C)c1CNCC(F)(F)F [Example A48, 5-(3,5-dimethyl-4-(((2,2,2-trifluoroethyl)amino)methyl)phenyl)-3-((1-(1-methylpiperidin-4-yl)-1H-pyrazol-4-yl)oxy)pyrazin-2-amine]	7.30	6.74

The remaining lines, values ahead:

pIC50 [1]	pIC50 [2]	Structure (SMILES)
7.41	6.99	Cc1cc(-c2cnc(N)c(Oc3cnn(C4CCN(C)CC4)c3)n2)cc(C)c1C1(O)COC1 [Example A63, 3-(4-(5-amino-6-((1-(1-methylpiperidin-4-yl)-1H-pyrazol-4-yl)oxy)pyrazin-2-yl)-2,6-dimethylphenyl)oxetan-3-ol]
7.74	7.11	Cc1cc(-c2cnc(N)c(Oc3cnn(C4CCN(C)CC4)c3)n2)cc([C@@]2(O)CCOC2)c1N1CCOCC1 [Example A97A, (S)-3-(5-(5-amino-6-((1-(1-methylpiperidin-4-yl)-1H-pyrazol-4-yl)oxy)pyrazin-2-yl)-3-methyl-2-morpholinophenyl)tetrahydrofuran-3-ol]
7.24	7.08	Cc1cc(-c2cnc(N)c(Oc3cnn(C4CCN(C)CC4)c3)n2)cc(C2(O)CCOC2)c1 (centres unmarked) [Example A69, 3-(3-(5-amino-6-((1-(1-methylpiperidin-4-yl)-1H-pyrazol-4-yl)oxy)pyrazin-2-yl)-5-methylphenyl)tetrahydrofuran-3-ol]
7.54	6.71	C[C@@H]1COCCN1c1cc(-c2cnc(N)c(Oc3cnn(C4CCN(C)CC4)c3)n2)cc([C@@]2(O)CCOC2)c1 [Example A80A, (S)-3-(3-(5-amino-6-((1-(1-methylpiperidin-4-yl)-1H-pyrazol-4-yl)oxy)pyrazin-2-yl)-5-((R)-3-methylmorpholino)phenyl)tetrahydrofuran-3-ol]
7.96	7.23	Cc1cc(-c2cnc(N)c(Oc3cnn(C4CCN(C)CC4)c3)n2)cc(C2(O)COC2)c1C [Example A73, 3-(5-(5-amino-6-(1-(1-methylpiperidin-4-yl)-1H-pyrazol-4-yloxy)pyrazin-2-yl)-2,3-dimethylphenyl)oxetan-3-ol]
7.43	7.14	CC#Cc1c(C)cc(-c2cnc(N)c(Oc3cnn(C4CCN(C)CC4)c3)n2)cc1C1(O)COC1 [Example A81, 3-(5-(5-amino-6-((1-(1-methylpiperidin-4-yl)-1H-pyrazol-4-yl)oxy)pyrazin-2-yl)-3-methyl-2-(prop-1-yn-1-yl)phenyl)oxetan-3-ol]
8.00	7.39	Cc1cc(-c2cnc(N)c(Oc3cnn(C4CCN(C)CC4)c3)n2)cc([C@]2(O)CCOC2)c1 [Example A74B, (R)-3-(3-(5-amino-6-((1-(1-methylpiperidin-4-yl)-1H-pyrazol-4-yl)oxy)pyrazin-2-yl)-5-methylphenyl)tetrahydrofuran-3-ol]
7.15	6.93	Cc1cc(-c2cnc(N)c(Oc3cnn(C4CCN(C)CC4)c3)n2)cc(C(C)(C)O)c1 [Example A52, 2-(3-(5-amino-6-((1-(1-methylpiperidin-4-yl)-1H-pyrazol-4-yl)oxy)pyrazin-2-yl)-5-methylphenyl)propan-2-ol]
8.25	7.23	CN1CCC(n2cc(Oc3nc(-c4cc(N5CCOCC5)cc(C5(O)COC5)c4)cnc3N)cn2)CC1 [Example A72, 3-(3-(5-amino-6-((1-(1-methylpiperidin-4-yl)-1H-pyrazol-4-yl)oxy)pyrazin-2-yl)-5-morpholinophenyl)oxetan-3-ol]
7.59	7.41	Cc1cc(-c2cnc(N)c(Oc3cnn(C4CCN(C)CC4)c3)n2)cc(C)c1CNS(=O)(=O)N1CCOCC1 [Example A71, N-(4-(5-amino-6-((1-(1-methylpiperidin-4-yl)-1H-pyrazol-4-yl)oxy)pyrazin-2-yl)-2,6-dimethylbenzyl)morpholine-4-sulfonamide]
8.15	6.81	Cc1cc(-c2cnc(N)c(Oc3cnn(C4CCN(C)CC4)c3)n2)cc(C2(O)CCOC2)c1N1CC2(CCOCC2)C1 (centres unmarked) [Example A92, 3-(5-(5-amino-6-((1-(1-methylpiperidin-4-yl)-1H-pyrazol-4-yl)oxy)pyrazin-2-yl)-3-methyl-2-(7-oxa-2-azaspiro[3.5]nonan-2-yl)phenyl)tetrahydrofuran-3-ol]
7.80	7.35	Cc1cc(-c2cnc(N)c(Oc3cnn(C4CCN(C)CC4)c3)n2)cc(C)c1CNC(=O)NC1(C(F)(F)F)CC1 [Example A64, 1-(4-(5-amino-6-((1-(1-methylpiperidin-4-yl)-1H-pyrazol-4-yl)oxy)pyrazin-2-yl)-2,6-dimethylbenzyl)-3-(1-(trifluoromethyl)cyclopropyl)urea]
8.09	7.29	C[C@@H]1COCCN1c1cc(-c2cnc(N)c(Oc3cnn(C4CCN(C)CC4)c3)n2)cc(C2(O)COC2)c1 [Example A59, (R)-3-(3-(5-amino-6-((1-(1-methylpiperidin-4-yl)-1H-pyrazol-4-yl)oxy)pyrazin-2-yl)-5-(3-methylmorpholino)phenyl)oxetan-3-ol]
7.44	6.93	Cc1cc(-c2cnc(N)c(Oc3cnn(C4CCN(C)CC4)c3)n2)cc(C2(O)CCOC2)c1N1CCOCC1 (centres unmarked) [Example A96, 3-(5-(5-amino-6-((1-(1-methylpiperidin-4-yl)-1H-pyrazol-4-yl)oxy)pyrazin-2-yl)-3-methyl-2-morpholinophenyl)tetrahydrofuran-3-ol]

From US20240317714A1, “3-[(1H-PYRAZOL-R-YL)OXY]PYRAZIN-2-AMINE COMPOUNDS AS HPK1 INHIBITOR AND USE THEREOF” (BeiGene, Ltd., priority 2020, published 2024)
